Reference: patent publication US12071425B2 (Genentech, Inc., priority 2018, dated 2024)
Counter-ions that a name gives are not always drawn.

Biological target: kinase domain of IRE1 alpha (His-tagged kinase dead construct KR, AA G547-L977, D688N) (Homo sapiens (Human), UniProt O75460, D688N)
Test: IRE1α TR-FRET competition binding assay
Settings: competition with Kinase Tracer 236, 0.1 μM; one hour at room temperature
How it was run: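 Sf9-expressed kinase-dead KR construct (0.006 μM final) pre-incubated 1 h at 4° C with Eu anti-His antibody (0.002 μM) in HEPES pH 7.5/MgCl2/Brij/DTT buffer; Kinase Tracer 236 (ATP-competitive probe, 0.1 μM final) added with compound. 1 h at room temperature; tracer displacement read by TR-FRET (665/615 nm).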

Chain of kinase domain of IRE1 alpha (His-tagged kinase dead construct KR, AA G547-L977, D688N) (O75460 547-977 D688N): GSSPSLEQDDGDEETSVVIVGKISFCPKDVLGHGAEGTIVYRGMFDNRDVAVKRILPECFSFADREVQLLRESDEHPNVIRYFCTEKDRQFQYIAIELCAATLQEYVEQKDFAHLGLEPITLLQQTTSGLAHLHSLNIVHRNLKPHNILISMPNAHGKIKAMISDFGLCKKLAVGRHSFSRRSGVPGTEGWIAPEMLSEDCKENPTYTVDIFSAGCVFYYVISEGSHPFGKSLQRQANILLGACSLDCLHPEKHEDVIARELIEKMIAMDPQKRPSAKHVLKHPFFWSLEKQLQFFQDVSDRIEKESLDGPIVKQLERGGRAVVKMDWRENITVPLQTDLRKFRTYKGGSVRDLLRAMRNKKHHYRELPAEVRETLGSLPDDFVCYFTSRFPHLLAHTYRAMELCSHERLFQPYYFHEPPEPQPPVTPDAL

SMILES	IC50
Cc1cc(NS(=O)(=O)C2CCCCC2)cc(F)c1Oc1ncccc1-c1ccnc(N[C@H]2CCCNC2)n1 [Compound 117, (S)-N-(3-fluoro-5-methyl-4-((3-(2-(piperidin-3-ylamino)pyrimidin-4-yl)pyridin-2-yl)oxy)phenyl)cyclohexanesulfonamide hydrochloride]	21 nM
CC(F)C1CNCC(Nc2nccc(-c3cccnc3Oc3cc(F)c(NS(=O)(=O)Cc4ccccc4)c(F)c3F)n2)C1 (single isomer, unassigned) [Compound 342, 1-Phenyl-N-(2,3,6-trifluoro-4-((3-(2-((5-(1-fluoroethyl)piperidin-3-yl)amino)pyrimidin-4-yl)pyridin-2-yl)oxy)phenyl)methanesulfonamide hydrochloride]	0.16 nM
COCC1CNCC(Nc2nccc(-c3cccnc3Oc3cc(F)c(NS(=O)(=O)Cc4ccccc4)c(F)c3F)n2)C1 (single isomer, unassigned) [Compound 330, 1-Phenyl-N-(2,3,6-trifluoro-4-((3-(2-((5-(methoxymethyl)piperidin-3-yl)amino)pyrimidin-4-yl)pyridin-2-yl)oxy)phenyl)methanesulfonamide]	87 nM
CCC(F)(F)CS(=O)(=O)Nc1c(F)cc(Oc2nc(C)ccc2-c2ccnc(N[C@@H]3CNC[C@@H](F)C3)n2)c(F)c1F [Compound 270, 2,2-Difluoro-N-(2,3,6-trifluoro-4-((3-(2-(((3S,5S)-5-fluoropiperidin-3-yl)amino)pyrimidin-4-yl)-6-methylpyridin-2-yl)oxy)phenyl)butane-1-sulfonamide]	0.54 nM
Cc1c(F)c(NS(=O)(=O)Cc2ccc(C#N)cc2)c(F)c(F)c1Oc1ncccc1-c1ccnc(N[C@@H]2CNC[C@@H](F)C2)n1 [Compound 255, 1-(4-Cyanophenyl)-N-(2,3,6-trifluoro-4-((3-(2-(((3S,5S)-5-fluoropiperidin-3-yl)amino)pyrimidin-4-yl)pyridin-2-yl)oxy)-5-methylphenyl)methanesulfonamide]	230 nM
O=S(=O)(CCC1CC1)Nc1c(F)cc(Oc2ncccc2-c2ccnc(N[C@@H]3CNC[C@@H](F)C3)n2)c(F)c1F [Compound 267, 2-Cyclopropyl-N-(2,3,6-trifluoro-4-((3-(2-(((3S,5S)-5-fluoropiperidin-3-yl)amino)pyrimidin-4-yl)pyridin-2-yl)oxy)phenyl)ethane-1-sulfonamide]	2.2 nM
Cc1ccc(CS(=O)(=O)Nc2cc(C)c(Oc3ncccc3-c3ccnc(N[C@@H]4CNC[C@@](C)(F)C4)n3)c(F)c2F)cc1 [Compound 297, N-(2,3-Difluoro-4-((3-(2-(((3S,5S)-5-fluoro-5-methylpiperidin-3-yl)amino)pyrimidin-4-yl)pyridin-2-yl)oxy)-5-methylphenyl)-1-(p-tolyl)methanesulfonamide]	0.28 nM
CCCS(=O)(=O)Nc1cc(C)c(Oc2ncccc2-c2ccnc(N[C@H]3CCCNC3)n2)cc1C [Compound 124, (S)-N-(2,5-Dimethyl-4-((3-(2-(piperidin-3-ylamino)pyrimidin-4-yl)pyridin-2-yl)oxy)phenyl)propane-1-sulfonamide]	210 nM
Cc1cc(NS(=O)(=O)Cc2ccccc2)cc(F)c1Oc1ncccc1-c1ccnc(N[C@H]2CC[C@H](N)CC2)n1 [Compound 119, N-(4-((3-(2-(((1r,4r)-4-aminocyclohexyl)amino)pyrimidin-4-yl)pyridin-2-yl)oxy)-3-fluoro-5-methylphenyl)-1-phenylmethanesulfonamide hydrochloride]	13 nM
CC(F)(F)CCS(=O)(=O)Nc1c(F)cc(Oc2ncccc2-c2ccnc(N[C@@H]3CNC[C@@H](F)C3)n2)c(F)c1F [Compound 253, 3,3-Difluoro-N-(2,3,6-trifluoro-4-((3-(2-(((3S,5S)-5-fluoropiperidin-3-yl)amino)pyrimidin-4-yl)pyridin-2-yl)oxy)phenyl)butane-1-sulfonamide]	1.9 nM
O=S(=O)(CC1CCC1(F)F)Nc1c(F)cc(Oc2ncccc2-c2ccnc(N[C@@H]3CNC[C@@H](F)C3)n2)c(F)c1F (single isomer, unassigned) [Compound 264]	1.6 nM
O=S(=O)(CC12CCC(CC1)C2)Nc1c(F)cc(Oc2ncccc2-c2ccnc(N[C@@H]3CNC[C@@H](F)C3)n2)c(F)c1F [Compound 376, 1-(Bicyclo[2.2.1]heptan-1-yl)N-(2,3,6-trifluoro-4-((3-(2-(((3S,5S)-5-fluoropiperidin-3-yl)amino)pyrimidin-4-yl)pyridin-2-yl)oxy)phenyl)methanesulfonamide]	0.2 nM
COCC1CNCC(Nc2nccc(-c3cccnc3Oc3cc(F)c(NS(=O)(=O)Cc4ccccc4)c(F)c3F)n2)C1 (single isomer, unassigned) [Compound 328, 1-Phenyl-N-(2,3,6-trifluoro-4-((3-(2-((5-(methoxymethyl)piperidin-3-yl)amino)pyrimidin-4-yl)pyridin-2-yl)oxy)phenyl)methanesulfonamide]	11 nM

Continued, values first:

IC50	SMILES
0.78 nM	O=S(=O)(Cc1ccccc1)Nc1c(F)cc(Oc2ncccc2-c2ccnc(NC3CNCC(CF)C3)n2)c(F)c1F (single isomer, unassigned) [Compound 278, 1-Phenyl-N-(2,3,6-trifluoro-4-((3-(2-((5-(fluoromethyl)piperidin-3-yl)amino)pyrimidin-4-yl)pyridin-2-yl)oxy)phenyl)methanesulfonamide]
15 nM	O=S(=O)(CC1CC(F)(F)C1)Nc1ccc(Oc2ncccc2-c2ccnc(N[C@H]3CCCNC3)n2)c(F)c1F [Compound 232, (S)-N-(2,3-difluoro-4-(3-(2-(piperidin-3-ylamino)pyrimidin-4-yl)pyridin-2-yloxy)phenyl)-1-(3,3-difluorocyclobutyl)methanesulfonamide]
7.4 nM	O=S(=O)(Nc1ccc(Cl)c(Oc2ncccc2-c2ccnc(N[C@H]3CCCNC3)n2)c1F)c1ccccc1Cl [Compound 137, (S)-2-Chloro-N-(4-chloro-2-fluoro-3-((3-(2-(piperidin-3-ylamino)pyrimidin-4-yl)pyridin-2-yl)oxy)phenyl)benzenesulfonamide hydrochloride]
0.24 nM	Cc1cc(NS(=O)(=O)C(C)c2ccccc2)c(F)c(F)c1Oc1ncccc1-c1ccnc(N[C@@H]2CNC[C@@H](F)C2)n1 (single isomer, unassigned) [Compound 314]
4 nM	CCC(F)(F)CS(=O)(=O)Nc1c(F)cc(Oc2ncccc2-c2ccnc(N[C@H]3CCCNC3)n2)c(F)c1F [Compound 194, (S)-2,2-difluoro-N-(2,3,6-trifluoro-4-((3-(2-(piperidin-3-ylamino)pyrimidin-4-yl)pyridin-2-yl)oxy)phenyl)butane-1-sulfonamide]
7.5 nM	O=S(=O)(CC1CC2(CCC2)C1)Nc1ccc(Oc2ncccc2-c2ccnc(N[C@H]3CCCNC3)n2)c(F)c1F [Compound 209, (S)-N-(2,3-difluoro-4-((3-(2-(piperidin-3-ylamino)pyrimidin-4-yl)pyridin-2-yl)oxy)phenyl)-1-(spiro[3.3]heptan-2-yl)methanesulfonamide]
11 nM	O=S(=O)(CC1(F)CC1)Nc1ccc(Oc2ncccc2-c2ccnc(N[C@H]3CCCNC3)n2)c(F)c1F [Compound 188, (S)-N-(2,3-difluoro-4-((3-(2-(piperidin-3-ylamino)pyrimidin-4-yl)pyridin-2-yl)oxy)phenyl)-1-(1-fluorocyclopropyl)methanesulfonamide]
8.5 nM	O=S(=O)(Cc1ccccc1)Nc1ccc(Oc2ncccc2-c2ccnc(N[C@@H]3CNCC(F)(F)C3)n2)c(F)c1F [Compound 183, (S)-N-(4-((3-(2-((5,5-difluoropiperidin-3-yl)amino)pyrimidin-4-yl)pyridin-2-yl)oxy)-2,3-difluorophenyl)-1-phenylmethanesulfonamide]
9.5 nM	O=S(=O)(Cc1ccccc1)Nc1ccc(Oc2ncccc2-c2ccnc(N[C@H]3CC[C@H](O)CC3)n2)c(F)c1F [Compound 182, N-(2,3-difluoro-4-((3-(2-(((1r,4r)-4-hydroxycyclohexyl)amino)pyrimidin-4-yl)pyridin-2-yl)oxy)phenyl)-1-phenylmethanesulfonamide]
2.7 nM	C[C@H]1CNC[C@@H](Nc2nccc(-c3cccnc3Oc3cc(F)c(NS(=O)(=O)Cc4ccccc4)c(F)c3F)n2)C1 [Compound 165, 1-phenyl-N-(2,3,6-trifluoro-4-((3-(2-(((3S,5R)-5-methyl-3-piperidyl)amino)pyrimidin-4-yl)-2-pyridyl)oxy)phenyl)methanesulfonamide]
0.78 nM	CC(F)C1CNCC(Nc2nccc(-c3cccnc3Oc3cc(F)c(NS(=O)(=O)Cc4ccccc4)c(F)c3F)n2)C1 (single isomer, unassigned) [Compound 343, 1-Phenyl-N-(2,3,6-trifluoro-4-((3-(2-((5-(1-fluoroethyl)piperidin-3-yl)amino)pyrimidin-4-yl)pyridin-2-yl)oxy)phenyl)methanesulfonamide hydrochloride]
7.3 nM	Cc1cc(NS(=O)(=O)c2ccccc2Cl)cc(F)c1Oc1ncccc1-c1ccnc(N[C@H]2CCCNC2)n1 [Compound 114, (S)-2-chloro-N-(3-fluoro-5-methyl-4-((3-(2-(piperidin-3-ylamino)pyrimidin-4-yl)pyridin-2-yl)oxy)phenyl)benzenesulfonamide hydrochloride]
3.9 nM	O=S(=O)(Cc1ccccc1)Nc1c(F)cc(Oc2ncccc2-c2ccnc(N[C@H]3CCCNC3)n2)cc1F [Compound 152, (S)-N-(2,6-difluoro-4-((3-(2-(piperidin-3-ylamino)pyrimidin-4-yl)pyridin-2-yl)oxy)phenyl)-1-phenylmethanesulfonamide hydrochloride]
7.4 nM	O=S(=O)(Nc1ccc(Oc2ncccc2-c2ccnc(N[C@H]3CCCNC3)n2)c(F)c1F)c1cccc(OC(F)(F)F)c1 [Compound 207, (S)-N-(2,3-difluoro-4-((3-(2-(piperidin-3-ylamino)pyrimidin-4-yl)pyridin-2-yl)oxy)phenyl)-3-(trifluoromethoxy)benzenesulfonamide]
